For 1 compound, IC50 results are on record in patent US11583512B2, “Composition for relieving itch or irritation of skin, comprising thymol trimethoxycinnamate” (Amorepacific Corporation, priority 2020, dated 2023).

In this assay the target is T1, voltage-gated sodium channel Nav1.7 (Homo sapiens, UniProt Q15858).
T1 construct: host or cells: HEK293
Put plainly: Nav1.7 inhibition, membrane potential fluorescence dye assay with veratridine stimulation in Human Nav1.7-HEK293 cells. The format is cell-based. The following applies: 30 μM veratridine as stimulant.

T1 sequence (Q15858 whole entry): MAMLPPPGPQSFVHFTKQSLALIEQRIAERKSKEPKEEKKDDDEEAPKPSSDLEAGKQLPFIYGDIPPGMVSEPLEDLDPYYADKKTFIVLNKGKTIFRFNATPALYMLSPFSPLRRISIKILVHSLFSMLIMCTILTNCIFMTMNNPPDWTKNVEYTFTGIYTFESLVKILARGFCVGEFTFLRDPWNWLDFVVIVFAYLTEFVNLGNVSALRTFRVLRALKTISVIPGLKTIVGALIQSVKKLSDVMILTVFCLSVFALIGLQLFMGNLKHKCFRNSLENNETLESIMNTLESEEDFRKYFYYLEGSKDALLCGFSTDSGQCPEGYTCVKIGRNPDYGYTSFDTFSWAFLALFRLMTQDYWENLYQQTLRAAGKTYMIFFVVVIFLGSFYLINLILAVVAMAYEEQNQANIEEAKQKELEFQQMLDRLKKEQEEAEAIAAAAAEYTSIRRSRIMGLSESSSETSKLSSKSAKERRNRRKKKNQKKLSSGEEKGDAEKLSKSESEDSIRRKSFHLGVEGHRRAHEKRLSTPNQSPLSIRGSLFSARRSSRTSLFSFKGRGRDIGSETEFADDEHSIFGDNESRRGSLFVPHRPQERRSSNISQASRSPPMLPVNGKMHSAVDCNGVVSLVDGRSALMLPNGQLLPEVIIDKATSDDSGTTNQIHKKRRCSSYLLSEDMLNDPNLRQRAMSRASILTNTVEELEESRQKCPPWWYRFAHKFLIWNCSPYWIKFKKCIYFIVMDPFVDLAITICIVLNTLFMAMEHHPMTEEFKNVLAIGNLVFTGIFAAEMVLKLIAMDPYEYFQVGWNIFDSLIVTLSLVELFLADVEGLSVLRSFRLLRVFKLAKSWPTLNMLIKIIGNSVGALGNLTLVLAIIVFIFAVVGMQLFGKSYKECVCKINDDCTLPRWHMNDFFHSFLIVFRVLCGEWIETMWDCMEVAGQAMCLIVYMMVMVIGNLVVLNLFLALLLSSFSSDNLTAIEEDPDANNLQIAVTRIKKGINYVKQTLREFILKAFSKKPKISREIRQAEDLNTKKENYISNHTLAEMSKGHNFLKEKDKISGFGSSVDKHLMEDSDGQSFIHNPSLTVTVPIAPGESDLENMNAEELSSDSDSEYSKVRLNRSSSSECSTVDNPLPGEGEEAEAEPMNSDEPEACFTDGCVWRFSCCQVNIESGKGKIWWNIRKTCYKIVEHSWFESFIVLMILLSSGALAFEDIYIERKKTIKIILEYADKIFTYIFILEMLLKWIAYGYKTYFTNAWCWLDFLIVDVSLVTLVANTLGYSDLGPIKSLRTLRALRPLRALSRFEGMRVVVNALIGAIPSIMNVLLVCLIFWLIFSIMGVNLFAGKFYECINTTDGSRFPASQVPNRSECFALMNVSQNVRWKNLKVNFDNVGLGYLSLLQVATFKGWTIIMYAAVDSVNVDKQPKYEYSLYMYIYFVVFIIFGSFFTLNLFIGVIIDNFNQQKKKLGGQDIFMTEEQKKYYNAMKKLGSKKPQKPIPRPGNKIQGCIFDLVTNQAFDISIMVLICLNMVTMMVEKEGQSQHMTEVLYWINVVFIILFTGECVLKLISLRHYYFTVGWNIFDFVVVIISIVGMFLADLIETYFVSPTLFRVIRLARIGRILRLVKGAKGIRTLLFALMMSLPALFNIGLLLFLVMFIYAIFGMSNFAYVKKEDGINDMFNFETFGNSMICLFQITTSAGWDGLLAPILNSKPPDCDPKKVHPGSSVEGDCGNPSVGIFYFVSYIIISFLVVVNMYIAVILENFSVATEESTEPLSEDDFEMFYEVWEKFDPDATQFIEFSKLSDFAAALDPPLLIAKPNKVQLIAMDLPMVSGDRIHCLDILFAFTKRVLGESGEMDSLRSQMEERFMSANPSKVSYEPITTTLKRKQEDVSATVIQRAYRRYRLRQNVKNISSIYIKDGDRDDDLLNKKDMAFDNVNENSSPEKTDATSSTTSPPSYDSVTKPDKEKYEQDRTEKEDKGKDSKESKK
Method: Human Nav1.7-HEK293 cells are HEK293 (human embryonic kidney 293) cells stabilized by transforming the human Nav1.7 gene. One day before experiment, the Human Nav1.7-HEK293 cells were dispensed onto a 96-well plate with 8×10^4 cells/well and cultured in a 5% CO2 incubator at 37° C. for 24 hours. DMEM/F12 containing 10% fetal bovine serum (FBS) was used as a culture medium and geneticin (Gibco®, Thermo Fisher Scientific) was added to stabilize the cells.
24 hours later, after washing the 96-well plate once with a 20 mM HEPES Hanks' balanced salt solution (HBSS) buffer (hereinafter, referred to as a reaction buffer, Invitrogen®, Thermo Fisher Scientific), a membrane potential fluorescence dye (FLIPR®, Molecular Devices) was added to the human Nav1.7-HEK293 cells. […] After reaction for 10 minutes, the change in membrane potential depending on treatment with 30 μM veratridine as a stimulant was measured for each well for 55 seconds using a fluorescence plate reader (FlexStation3, Molecular Device, USA).
The inhibition rate was calculated in the same manner also for lidocaine (Sigma) which is used as a local anesthetic and itch-relieving agent.

Regarding `CCN(CC)CC(=O)Nc1c(C)cccc1C` [Lidocaine, lidocaine], inhibition was half-maximal at 28.7 µM (IC50).
